The supplement of paper PMC10307832

Columns and labels:
Test in all cases: relative viability (nuclei count vs DMSO), 5 days (fraction); higher = more cells survive
RAF265 + Tozasertib = compound: Cn1c(Nc2ccc(C(F)(F)F)cc2)nc2cc(Oc3ccnc(-c4ncc(C(F)(F)F)[nH]4)c3)ccc21 [RAF265] + Cc1cc(Nc2cc(N3CCN(C)CC3)nc(Sc3ccc(NC(=O)C4CC4)cc3)n2)n[nH]1 [Tozasertib] (partner 0.1 µM)
In short: (§1)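 The day after seeding in 1536-well plates, lung cancer cell lines were treated by pin tool with a single drug, or with a fixed anchor-drug dose together with five library-drug doses (not always all listed) in √10 steps. After 5 days, a combined fix-and-stain solution (final 0.05% Triton X-100, 1% formaldehyde, 1 ug/ml Hoechst) was added. Nuclei counted on 4× images gave relative viability as treated counts over vehicle counts, reported as the median of duplicate plates.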

IPA-3 + OSI-027 = compound: C1=CC=C2C(=C1)C=CC(=C2SSC3=C(C=CC4=CC=CC=C43)O)O [IPA-3] + COc1cccc2cc(-c3nc([C@H]4CC[C@H](C(=O)O)CC4)n4ncnc(N)c34)[nH]c12 [OSI-027] (partner 0.5 µM)
In short: as §1

IPA-3 + Trametinib = compound: C1=CC=C2C(=C1)C=CC(=C2SSC3=C(C=CC4=CC=CC=C43)O)O [IPA-3] + CC(=O)Nc1cccc(-n2c(=O)n(C3CC3)c(=O)c3c(Nc4ccc(I)cc4F)n(C)c(=O)c(C)c32)c1 [Trametinib] (partner 0.02 µM)
In short: as §1

RAF265 + Linsitinib = compound: Cn1c(Nc2ccc(C(F)(F)F)cc2)nc2cc(Oc3ccnc(-c4ncc(C(F)(F)F)[nH]4)c3)ccc21 [RAF265] + C[C@]1(O)C[C@@H](c2nc(-c3ccc4ccc(-c5ccccc5)nc4c3)c3c(N)nccn32)C1 [Linsitinib] (partner 1 µM)
In short: as §1

Cell Line	relative viability (RAF265 + Tozasertib; first compound 0.01 µM)	relative viability (RAF265 + Tozasertib; first compound 0.03162 µM)	relative viability (RAF265 + Tozasertib; first compound 0.1 µM)	relative viability (RAF265 + Tozasertib; first compound 0.3162 µM)	relative viability (RAF265 + Tozasertib; first compound 1 µM)	relative viability (IPA-3 + OSI-027; first compound 0.2 µM)	relative viability (IPA-3 + OSI-027; first compound 0.6325 µM)	relative viability (IPA-3 + OSI-027; first compound 2 µM)	relative viability (IPA-3 + OSI-027; first compound 6.325 µM)	relative viability (IPA-3 + OSI-027; first compound 20 µM)	relative viability (IPA-3 + Trametinib; first compound 0.2 µM)	relative viability (IPA-3 + Trametinib; first compound 0.6325 µM)	relative viability (IPA-3 + Trametinib; first compound 2 µM)	relative viability (IPA-3 + Trametinib; first compound 6.325 µM)	relative viability (IPA-3 + Trametinib; first compound 20 µM)	relative viability (RAF265 + Linsitinib; first compound 0.01 µM)	relative viability (RAF265 + Linsitinib; first compound 0.03162 µM)	relative viability (RAF265 + Linsitinib; first compound 0.1 µM)	relative viability (RAF265 + Linsitinib; first compound 0.3162 µM)	relative viability (RAF265 + Linsitinib; first compound 1 µM)
LU99A	0.318	0.285	0.28	0.291	0.195	0.273	0.323	0.286	0.323	0.315	0.608	0.551	0.502	0.553	0.514	0.471	0.423	0.323	0.308	0.273
LXF-289	0.217	0.172	0.174	0.205	0.108	0.909	0.722	0.696	0.847	0.911	0.714	0.646	0.668	0.662	0.762	0.916	0.919	0.947	0.815	0.792
NCI-H23	0.368	0.373	0.334	0.254	0.172	0.591	0.544	0.577	0.571	0.533	0.379	0.379	0.342	0.383	0.443	0.668	0.541	0.437	0.321	0.202
NCI-H322M	0.479	0.462	0.306	0.327	0.223	0.597	0.521	0.569	0.597	0.61	0.459	0.481	0.567	0.453	0.581	0.929	0.807	0.662	0.377	0.256
NCI-H358	0.11	0.0915	0.0883	0.0935	0.0863	0.895	0.733	0.746	0.69	0.758	0.136	0.132	0.134	0.134	0.114	0.843	0.565	0.443	0.37	0.267
NCI-H441	0.715	0.69	0.667	0.475	0.36	0.819	0.613	0.527	0.54	0.426	0.535	0.437	0.348	0.473	0.449	0.617	0.495	0.415	0.3	0.389
NCI-H460	0.446	0.468	0.628	0.445	0.293	1.2	0.615	0.658	0.671	0.78	0.133	0.145	0.141	0.129	0.104	0.812	0.692	0.647	–	0.378
NCI-H520	0.448	0.414	0.384	0.491	0.338	0.303	0.255	0.282	0.284	0.204	1.01	0.654	–	0.685	0.528	0.941	0.949	0.939	0.912	0.631
NCI-H596	1.04	0.959	1.06	0.888	0.728	0.761	0.681	0.757	0.668	0.865	0.842	0.756	0.861	0.801	0.818	1.05	0.97	1.1	1.09	0.657
NCI-H647	0.197	0.207	0.269	0.443	0.158	1.04	0.576	0.629	0.676	0.301	0.69	0.445	0.558	0.284	0.0977	0.801	0.991	1.01	0.574	0.519
NCI-H650	0.716	0.704	0.738	0.655	0.375	0.561	0.534	0.521	0.521	0.566	1.11	0.973	0.888	1.1	1.32	0.972	0.845	0.666	0.442	0.375
NCI-H661	0.374	0.35	0.314	0.351	0.35	0.894	0.726	0.716	0.356	0.673	0.679	0.584	0.613	0.589	0.555	0.589	0.412	0.686	0.455	0.33
NCI-H727	0.703	0.642	0.641	0.536	0.411	0.851	0.703	0.546	0.613	0.634	0.373	0.409	0.402	0.344	0.417	0.38	0.26	0.254	0.327	0.132
NCI-H838	0.266	0.283	0.288	0.311	0.223	0.468	0.437	0.478	0.429	0.453	0.8	0.519	0.352	0.478	0.517	1.12	1.01	1.02	1.03	0.77
NCI-H1355	0.575	0.515	0.587	0.47	0.19	0.417	0.42	0.407	0.398	0.378	0.462	0.476	0.428	0.423	0.443	0.791	0.67	0.72	0.458	0.298
NCI-H1395	0.677	0.667	0.666	0.84	0.609	0.641	0.705	0.547	0.621	0.692	1.02	1.03	1.04	1.05	1.13	1.14	1	1.05	1.08	0.741
